As usually defined, the IC50 is the concentration needed to halve the response being measured.

The values that follow come from PMC10140581, “Development and evaluation of novel artemisinin-isatin hybrids with potential anti-leukemic cytotoxicity” (Frontiers in Oncology, 2023).

The subject of data set [1] is K562 human myeloid leukemia cell line. As to the kind of experiment: MTT antiproliferative assay, K562. The class given is cell-based. The procedure: (§1) The antiproliferative activity and cytotoxicity of ester tethered ART-isatin hybrids 7a-u against human myeloid leukemia cell lines (K562 CM-0130 purchased from Procell and K562/ADR AW-CELLS-H0187 purchased from AnWei-sci), human acute lymphoblastic leukemia cell line (CCRF-CEM CL-0058 purchased from Procell) as well as cytotoxicity towards normal human peripheral blood mononuclear cells (PBMCs 230470, purchased from Mingzhoubio) were assessed by 3-(4,5-dimethylthiazol-2-yl)-2,5-diphenyltetrazolium bromide (MTT) assay.
(§2) Medium in wells was replaced after 24 h with fresh medium containing the tested compounds in DMSO (1% v/v) and incubated for 72 h. […] 3-(4,5-dimethyl-2-thiazolyl)-2,5-diphenyltetrazolium bromide (MTT) solution (10 µL) was added to each well, and the cultures were incubated for an additional 4 h at 37°C. A further 100 µL of […] was added and incubation continued overnight at 37°C. The absorbance at 540 nm was determined in each well with a 96-well plate reader. The growth of the treated cells was compared with that of untreated cells. Half maximum inhibitory concentration (IC50) is a measurement of the efficacy of a substance in inhibiting a specific biological or biochemical process. […] In this experiment, the dose-response curve constructed by Spss22.0 software was used to calculate the inhibitory effect of the hybrid (0 μM-100 μM) on the activity of leukemia cell lines. Each experiment was performed independently in triplicate with three tests in each, and results were reported as mean inhibitory concentration IC50.
(In general: Formazan colour is commonly taken as a measure of viable cells.)

Data set [2] in a line: MTT cytotoxicity assay, normal PBMCs. The settings on record: normal peripheral blood mononuclear cells (PBMCs); MTT assay, normal human PBMCs. The class given is cell-based, human. The procedure:
as §1

Data set [3] deals with normal human peripheral blood mononuclear cells (PBMCs). Put plainly: MTT cytotoxicity assay, normal PBMCs. It is filed as cell-based. The settings on record: PBMCs vs CCRF-CEM. The procedure: as §1
The subject of data set [4] is K562/ADR human myeloid leukemia cell line. Put plainly: MTT antiproliferative assay, K562/ADR. It is filed as cell-based. The procedure:
as §1, with “assay. The antiproliferative activity was expressed by half maximal inhibitory concentration (IC50) values, which were presented in Table 2 .” for “assay.”
as §2

The test system of data set [5] is CCRF-CEM human acute lymphoblastic leukemia cell line. As to the kind of experiment: MTT antiproliferative assay, CCRF-CEM. It is filed as cell-based. The procedure: as §1, §2

Turning to `CON=C1C(=O)N(CCCC(=O)OC2O[C@@H]3O[C@@]4(C)CC[C@H]5[C@H](C)CC[C@@H]([C@H]2C)[C@@]35OO4)c2ccc(F)cc21` (stereo partly drawn) [hybrid 7p, (3R,5aS,6R,8aS,9R,12R,12aR)-3,6,9-trimethyldecahydro-12H-3,12-epoxy[1,2]dioxepino[4,3-i]isochromen-10-yl 4-(3-(methoxyimino)-5-fluoro-2-oxoindolin-1-yl)butanoate], the IC50 is 49.8 µM in data set [1], more than 100 µM in data set [2], more than 100 µM in data set [4] and 18.6 µM in data set [5]. For the same compound, in data set [3], the “SI, Selectivity index, IC50(PBMCs)/IC50(CCRF-CEM)” value (shortened to “SI, Selectivity index”) is more than 5.36.

For `CON=C1C(=O)N(CCC(=O)OC2O[C@@H]3O[C@@]4(C)CC[C@H]5[C@H](C)CC[C@@H]([C@H]2C)[C@@]35OO4)c2ccc(OC)cc21` (stereo partly drawn) [hybrid 7k, (3R,5aS,6R,8aS,9R,12R,12aR)-3,6,9-trimethyldecahydro-12H-3,12-epoxy[1,2]dioxepino[4,3-i]isochromen-10-yl 3-(5-methoxy-3-(methoxyimino)-2-oxoindolin-1-yl)propanoate], the IC50 is more than 100 µM in data set [1], more than 100 µM in data set [2], more than 100 µM in data set [4] and 6.74 µM in data set [5]. For the same compound, in data set [3], the “SI, Selectivity index” value is more than 14.83.

With `CON=C1C(=O)N(CCCC(=O)OC2O[C@@H]3O[C@@]4(C)CC[C@H]5[C@H](C)CC[C@@H]([C@H]2C)[C@@]35OO4)c2ccc(OC)cc21` (stereo partly drawn) [hybrid 7s, (3R,5aS,6R,8aS,9R,12R,12aR)-3,6,9-trimethyldecahydro-12H-3,12-epoxy[1,2]dioxepino[4,3-i]isochromen-10-yl 4-(5-methoxy-3-(methoxyimino)-2-oxoindolin-1-yl)butanoate], the IC50 is more than 100 µM in data set [1], more than 100 µM in data set [2], more than 100 µM in data set [4] and 3.82 µM in data set [5]. The “SI, Selectivity index” value in data set [3] is more than 26.17.

Take `C[C@@H]1CC[C@H]2[C@@H](C)C(OC(=O)CCN3C(=O)C(=NOCc4ccccc4)c4cc(F)ccc43)O[C@@H]3O[C@@]4(C)CC[C@@H]1[C@]32OO4` (stereo partly drawn) [hybrid 7j, (3R,5aS,6R,8aS,9R,12R,12aR)-3,6,9-trimethyldecahydro-12H-3,12-epoxy[1,2]dioxepino[4,3-i]isochromen-10-yl 3-(3-[(benzyloxy)imino)-5-fluoro-2-oxoindolin-1-yl]propanoate]: the results for the IC50 in data set [1], in data set [4] and in data set [5] were more than 100 µM, 3.83 µM and more than 100 µM, respectively.

Take `C[C@@H]1CC[C@H]2[C@@H](C)C(OC(=O)CCCN3C(=O)C(=NOCc4ccccc4)c4ccccc43)O[C@@H]3O[C@@]4(C)CC[C@@H]1[C@]32OO4` (stereo partly drawn) [hybrid 7o, (3R,5aS,6R,8aS,9R,12R,12aR)-3,6,9-trimethyldecahydro-12H-3,12-epoxy[1,2]dioxepino[4,3-i]isochromen-10-yl 4-(3-[(benzyloxy)imino)-2-oxoindolin-1-yl]butanoate]: the IC50 in data set [1], in data set [4] and in data set [5] was more than 100 µM throughout.

For `C[C@@H]1CC[C@H]2[C@@H](C)C(=O)O[C@@H]3O[C@@]4(C)CC[C@@H]1[C@]32OO4` [ART, Artemisinin], the IC50 in data set [1], in data set [4] and in data set [5] was more than 100 µM each time.

Turning to `C[C@@H]1CC[C@H]2[C@@H](C)C(OC(=O)CCCN3C(=O)C(=NOCc4ccccc4)c4cc(F)ccc43)O[C@@H]3O[C@@]4(C)CC[C@@H]1[C@]32OO4` (stereo partly drawn) [hybrid 7r, (3R,5aS,6R,8aS,9R,12R,12aR)-3,6,9-trimethyldecahydro-12H-3,12-epoxy[1,2]dioxepino[4,3-i]isochromen-10-yl 4-(3-[(benzyloxy)imino)-5-fluoro-2-oxoindolin-1-yl]butanoate], the IC50 was 6.32 µM in data set [1], more than 100 µM in data set [2], more than 100 µM in data set [4] and 9.21 µM in data set [5]. In addition, the “SI, Selectivity index” value in data set [3] is recorded as more than 10.85.

For `CCON=C1C(=O)N(CCCC(=O)OC2O[C@@H]3O[C@@]4(C)CC[C@H]5[C@H](C)CC[C@@H]([C@H]2C)[C@@]35OO4)c2ccccc21` (stereo partly drawn) [hybrid 7n, (3R,5aS,6R,8aS,9R,12R,12aR)-3,6,9-trimethyldecahydro-12H-3,12-epoxy[1,2]dioxepino[4,3-i]isochromen-10-yl 4-(3-(ethoxyimino)-2-oxoindolin-1-yl)butanoate], the IC50 in data set [1], in data set [4] and in data set [5] was more than 100 µM in each case.

Take `C[C@@H]1CC[C@H]2[C@@H](C)C(OC(=O)CCN3C(=O)C(=NOCc4ccccc4)c4ccccc43)O[C@@H]3O[C@@]4(C)CC[C@@H]1[C@]32OO4` (stereo partly drawn) [hybrid 7g, (3R,5aS,6R,8aS,9R,12R,12aR)-3,6,9-trimethyldecahydro-12H-3,12-epoxy[1,2]dioxepino[4,3-i]isochromen-10-yl 3-(3-[(benzyloxy)imino)-2-oxoindolin-1-yl]propanoate]: the IC50 in data set [1], in data set [4] and in data set [5] was more than 100 µM each time.

Take `CON=C1C(=O)N(CCCC(=O)OC2O[C@@H]3O[C@@]4(C)CC[C@H]5[C@H](C)CC[C@@H]([C@H]2C)[C@@]35OO4)c2ccccc21` (stereo partly drawn) [hybrid 7m, (3R,5aS,6R,8aS,9R,12R,12aR)-3,6,9-trimethyldecahydro-12H-3,12-epoxy[1,2]dioxepino[4,3-i]isochromen-10-yl 4-(3-(methoxyimino)-2-oxoindolin-1-yl)butanoate]: the IC50 in data set [1] is more than 100 µM; in data set [2] it was more than 100 µM; in data set [4], more than 100 µM; in data set [5], 2.78 µM. Also, the “SI, Selectivity index” value in data set [3] is on record as more than 35.97.

Regarding `COc1ccc2c(c1)C(=NOCc1ccccc1)C(=O)N2CCCC(=O)OC1O[C@@H]2O[C@@]3(C)CC[C@H]4[C@H](C)CC[C@@H]([C@H]1C)[C@@]24OO3` (stereo partly drawn) [hybrid 7u, (3R,5aS,6R,8aS,9R,12R,12aR)-3,6,9-trimethyldecahydro-12H-3,12-epoxy[1,2]dioxepino[4,3-i]isochromen-10-yl 4-(3-[(benzyloxy)imino)-5-methoxy-2-oxoindolin-1-yl]butanoate], the IC50 in data set [1] was more than 100 µM; in data set [2] it was more than 100 µM; in data set [4], more than 100 µM; in data set [5], 2.45 µM. Also, the “SI, Selectivity index” value in data set [3] is on record as more than 40.81.

Take `CCON=C1C(=O)N(CCC(=O)OC2O[C@@H]3O[C@@]4(C)CC[C@H]5[C@H](C)CC[C@@H]([C@H]2C)[C@@]35OO4)c2ccc(OC)cc21` (stereo partly drawn) [hybrid 7l, (3R,5aS,6R,8aS,9R,12R,12aR)-3,6,9-trimethyldecahydro-12H-3,12-epoxy[1,2]dioxepino[4,3-i]isochromen-10-yl 3-(5-methoxy-3-(ethoxyimino)-2-oxoindolin-1-yl)propanoate]: the IC50 in data set [1] is more than 100 µM; in data set [2], more than 100 µM; in data set [4], more than 100 µM; in data set [5] it was 19.4 µM. Further, in data set [3], the “SI, Selectivity index” value is on record as more than 5.16.

Take `CON=C1C(=O)N(CC(=O)OC2O[C@@H]3O[C@@]4(C)CC[C@H]5[C@H](C)CC[C@@H]([C@H]2C)[C@@]35OO4)c2ccc(F)cc21` (stereo partly drawn) [hybrid 7c, (3R,5aS,6R,8aS,9R,12R,12aR)-3,6,9-trimethyldecahydro-12H-3,12-epoxy[1,2]dioxepino[4,3-i]isochromen-10-yl 2-(5-fluoro-3-(methoxyimino)-2-oxoindolin-1-yl)acetate]: the IC50 in data set [1] is more than 100 µM; in data set [2], more than 100 µM; in data set [4], more than 100 µM; in data set [5], 29.4 µM.

Turning to `CCON=C1C(=O)N(CCC(=O)OC2O[C@@H]3O[C@@]4(C)CC[C@H]5[C@H](C)CC[C@@H]([C@H]2C)[C@@]35OO4)c2ccc(F)cc21` (stereo partly drawn) [hybrid 7i, (3R,5aS,6R,8aS,9R,12R,12aR)-3,6,9-trimethyldecahydro-12H-3,12-epoxy[1,2]dioxepino[4,3-i]isochromen-10-yl 3-(3-(ethoxyimino)-5-fluoro-2-oxoindolin-1-yl)propanoate], the figures for the IC50 in data set [1], in data set [4] and in data set [5] were 15.9 µM, more than 100 µM and more than 100 µM, respectively.

In the case of `O=C(CCCCCCC(=O)Nc1ccccc1)NO` [Vorinostat, reference compound], the IC50 in data set [4] amounted to 2.18 µM.

With `C[C@@H]1CC[C@H]2[C@@H](C)C(OC(=O)CN3C(=O)C(=NOCc4ccccc4)c4ccccc43)O[C@@H]3O[C@@]4(C)CC[C@@H]1[C@]32OO4` (stereo partly drawn) [hybrid 7b, (3R,5aS,6R,8aS,9R,12R,12aR)-3,6,9-trimethyldecahydro-12H-3,12-epoxy[1,2]dioxepino[4,3-i]isochromen-10-yl 2-(3-[(benzyloxy)imino)-2-oxoindolin-1-yl]acetate], the IC50 in data set [1], in data set [4] and in data set [5] was more than 100 µM throughout.
